Test results from patent US11673925B2, “Oligopeptide with anti-inflammatory activity, preparation method, and application thereof” (NANJING UNIVERSITY OF FINANCE AND ECONOMICS, priority 2021, dated 2023).
Where a SMILES comes first, the peptide text is derived from it.

System: RAW 264.7 normal macrophages
Format: cell-based
Text: (4) detection of effects of respective components (WGPH-I, WGPH-II, and WGPH-III) on the proliferation activity of RAW 264.7 normal macrophages by a methyl thiazolyl tetrazolium (MTT) assay
RAW 264.7 macrophages in a logarithmic growth phase are taken and prepared into a cell suspension of 3×10^4 cells/mL in a RPIM 1640 culture medium containing 10% FBS. Sample wells are set in a 96-well plate (also referred to as 96-well tissue culture plates), and 100 microliters (μL) of cell suspension are added to each sample well, and the cells are cultured in a cell incubator for 12 h to make the cells adhere to the wall. After removing the culture medium in the sample wells, different components WGPH-I (>3 kDa), WGPH-II (1˜3 kDa), and WGPH-III (<1 kDa) are dissolved in RPIM 1640 culture medium containing 10% FBS to prepare different concentrations of oligopeptide culture medium (0, 50, 100, 200, and 300 μg/mL) respectively, and then added to respective sample wells, 100 μL per well. A blank well is set, and compared with the sample wells, there is no cell, with 100 μL PBS instead of the oligopeptide culture medium. A control well is set, compared with the sample wells, there is cells, with 100 μL PBS instead of oligopeptide culture medium. […] The absorbance is measured at a wavelength of 570 nanometers (nm) in the microplate reader. […]

**Q.** `C[C@H](N)C(=O)N1CCC[C@H]1C(=O)N[C@@H](CCC(=O)O)C(=O)N1CCC[C@H]1C(=O)N[C@@H](CCC(=O)O)C(=O)N1CCC[C@H]1C(=O)N[C@@H](C)C(=O)N[C@@H](Cc1ccccc1)C(=O)O` [oligopeptide] (H-APEPEPAF-OH) was tested. Which “effect on the proliferation activity of macrophages” value did it give?
**A.** no effect
